Data set [1] is described as follows: LD50 toxicity study on Balb C mice. It is filed as in vivo. The following applies: mouse, in vivo. Here is the method:
LD50 data was measured, and exemplary gamma-glutamyl cycle inhibitor's toxicity study was conducted on Balb C Mice. A conjugate of L-penicillamine and methyl glyoxal (MGPA) was adminstered at about 4500 mg/kg ip, 5000 mg/kg oral. A conjugate of L-penicillamine and para-methoxyphenyl (PMPA) was administered at 5250 mg/kg ip, 5500 mg/kg oral; and a conjugate of L-penicillamine and citronellal (CNPA) was administered at 3250 mg/kg ip, 4500 mg/kg oral.

The subject of the next data set is tumor. Put plainly: Anti-cancer activity of (L) versus (D) conformation compounds in animal models and compassionate use (summary statement). The following applies: animal models and compassionate use treatment of human subjects. The format is in vivo. The source says:
However, in contrast to D-penicillamine, the L-penicillamine stereoisomer is toxic, and has not been approved as a drug. […] Moreover, when the inventors compared the relative activities, the (L) conformation compounds of this disclosure appeared to be at least 2× as active as the corresponding racemate, due to the improved stereospecificity in the enzymatic catalysis of 5-oxoproline by 5 oxoprolinase.

Each structure is given as a SMILES string.

The values that follow come from patent publication US12686667B2, “Methods and compositions for gamma-glutamyl cycle modulation” (CANCER RESEARCH TECHNOLOGIES LLC, priority 2013, dated 2026).

In the case of `COc1ccc(C2N[C@@H](C(=O)O)C(C)(C)S2)cc1` (stereo partly shown) [PMPA], the median lethal dose (LD50) (as a rule, the dose at which mortality reaches 50%) was 5250 mg/kg in data set [1] (5250 mg/kg, ip) and 5500 mg/kg in data set [1] (5500 mg/kg, oral). The “anti-tumor / anti-cancer activity” value in the data set with tumor is reported as “potent anti-tumor activity”.
As for `COc1ccc(C2NC(C(=O)O)C(C)(C)S2)cc1` (stereo not drawn) [(D) stereoisomer], the “anti-tumor / anti-cancer activity” value with tumor is given as “no activity”.
